# Test results: US20230257351A1, “SUBSTITUTED N-[…] HAVING P2X4 RECEPTOR ANTAGONISTIC ACTIVITY” (Bayer Aktiengesellschaft, priority 2020, published 2023)
# Target: T1, human P2X4 (Homo sapiens, UniProt Q99571)
# T1 construct: expressed in transfected cells
# T1 sequence (Q99571 1-388): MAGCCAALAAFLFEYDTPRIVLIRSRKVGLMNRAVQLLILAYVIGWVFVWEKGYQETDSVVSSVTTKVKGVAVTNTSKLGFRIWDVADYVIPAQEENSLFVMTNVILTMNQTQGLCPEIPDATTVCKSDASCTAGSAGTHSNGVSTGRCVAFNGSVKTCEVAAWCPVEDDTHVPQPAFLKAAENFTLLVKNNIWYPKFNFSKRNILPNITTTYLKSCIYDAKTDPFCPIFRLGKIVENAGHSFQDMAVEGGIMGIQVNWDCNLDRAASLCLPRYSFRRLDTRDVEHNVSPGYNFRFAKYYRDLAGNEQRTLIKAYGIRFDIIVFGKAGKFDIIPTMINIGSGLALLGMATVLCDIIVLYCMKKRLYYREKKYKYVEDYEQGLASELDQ
# Assay: Human P2X4 HEK Cell FLIPR Assay
# Format: cell-based
# Settings: HEK293 stably expressing human P2X4, agonist Bz-ATP 3 μM (EC80); for IC50: read-out: Human P2X4 HEK Cells (FLIPR Assay) avg IC50
# Method: Compounds were tested on a HEK293 cell line stably expressing human P2X4. Cells were cultured on poly-D-lysine-coated 384-well plates at a density of 15,000 cells/well and incubated overnight at 37° C., 5% CO2. P2X4 function was assessed by measuring intracellular calcium fluxes caused by Benzoylbenzoyl-ATP (Bz-ATP) using the calcium-chelating dye Fluo8-AM (Molecular Devices) with the Fluorescent Imaging Plate Reader Tetra (FLIPR^Tetra; Molecular Devices CA). On the day of the assay, the medium was removed and the cells were incubated for 30 min at 37° C. and 5% CO2 in 30 μl of dye buffer (Hank's balanced salt solution, 10 mM HEPES, 1.8 mM CaCl2, 1 mM MgCl2, 2 mM probenecid, 5 mM D-glucose monohydrate, 5 μM Fluo8-AM, pH=7.4). Compounds diluted in probenecid buffer (Hank's balanced salt solution, 10 mM HEPES, 1.8 mM CaCl2, 1 mM MgCl2, 2 mM probenecid, 5 mM D-glucose monohydrate, pH=7.4) at ten concentrations ranging from 25 μM to 1 nM (final concentration) were dispensed and incubated for 30 min at room temperature. […] The final assay volume was 50 μl and final DMSO concentration was 0.5%.
# The fluorescence intensity reflecting intracellular calcium changes was recorded before and after Bz-ATP addition, at an excitation and emission wavelengths of 470-495 nm and 515-575 nm respectively.
# The compounds were tested in triplicates and fluorescence intensity raw data normalized to the agonist control and fitted to the four-parameter logistic equation:
# Y=Bottom+(Top−Bottom)/(1+10^((Log IC50−X)*HillSlope))
# Assay plate acceptance was based on the signal window (S/B)[…] and the reference compound pIC50 within ±3σ the mean of historic pIC50 of the compound. Failure to meet two of the three criteria determined exclusion of the plate's results.
SMILES,Human P2X4 HEK Cells (FLIPR Assay) avg Efficacy [%],IC50 [nM]
"CC(=O)N(c1ccc(S(C)(=O)=O)c(F)c1)c1cc(NC(=O)Cc2c(Cl)cccc2Cl)ccn1 [Example 82, N-{4-[2-(2,6-dichlorophenyl)acetamido]pyridin-2-yl}-N-[3-fluoro-4-(methanesulfonyl)phenyl]acetamide]",97,504
"CC(=O)N(c1cc(F)c(C)c(F)c1)c1cc(NC(=O)Cc2ccccc2Cl)ccn1 [Example 92, N-{4-[2-(2-chlorophenyl)acetamido]pyridin-2-yl}-N-(3,5-difluoro-4-methylphenyl)acetamide]",97,568
"CC(=O)N(c1cc(F)c(C)c(F)c1)c1cc(NC(=O)Cc2ccc(F)cc2Cl)ccn1 [Example 93, N-{4-[2-(2-chloro-4-fluorophenyl)acetamido]pyridin-2-yl}-N-(3,5-difluoro-4-methylphenyl)acetamide]",98,705
"CC(=O)N(c1cc(F)c(C)c(F)c1)c1cc(NC(=O)Cc2cccc(F)c2Cl)ccn1 [Example 94, N-{4-[2-(2-chloro-3-fluorophenyl)acetamido]pyridin-2-yl}-N-(3,5-difluoro-4-methylphenyl)acetamide]",97,710
"CC(=O)N(c1cc(F)c(C)c(F)c1)c1cc(NC(=O)Cc2c(Cl)cccc2Cl)ccn1 [Example 95, N-{4-[2-(2,6-dichlorophenyl)acetamido]pyridin-2-yl}-N-(3,5-difluoro-4-methylphenyl)acetamide]",100,694
"COc1c(F)cc(N(C(C)=O)c2cc(NC(=O)Cc3ccccc3Cl)ccn2)cc1F [Example 96, N-{4-[2-(2-chlorophenyl)acetamido]pyridin-2-yl}-N-(3,5-difluoro-4-methoxyphenyl)acetamide]",89,362
"COc1c(F)cc(N(C(C)=O)c2cc(NC(=O)Cc3ccc(F)cc3Cl)ccn2)cc1F [Example 97, N-{4-[2-(2-chloro-4-fluorophenyl)acetamido]pyridin-2-yl}-N-(3,5-difluoro-4-methoxyphenyl)acetamide]",89,461
"COc1c(F)cc(N(C(C)=O)c2cc(NC(=O)Cc3cccc(F)c3Cl)ccn2)cc1F [Example 98, N-{4-[2-(2-chloro-3-fluorophenyl)acetamido]pyridin-2-yl}-N-(3,5-difluoro-4-methoxyphenyl)acetamide]",92,296
"COc1c(F)cc(N(C(C)=O)c2cc(NC(=O)Cc3c(Cl)cccc3Cl)ccn2)cc1F [Example 99, N-{4-[2-(2,6-dichlorophenyl)acetamido]pyridin-2-yl}-N-(3,5-difluoro-4-methoxyphenyl)acetamide]",95,449
"CC(=O)N(c1cccc(OC(F)(F)F)c1)c1cc(NC(=O)Cc2ccccc2Cl)ccn1 [Example 102, N-{4-[2-(2-chlorophenyl)acetamido]pyridin-2-yl}-N-[3-(trifluoromethoxy)phenyl]acetamide]",99,937
"COc1cc(N(C(C)=O)c2cc(NC(=O)Cc3cccc(F)c3Cl)ccn2)ccc1F [Example 103, N-{4-[2-(2-chloro-3-fluorophenyl)acetamido]pyridin-2-yl}-N-(4-fluoro-3-methoxyphenyl)acetamide]",97,767
"COc1cc(N(C(C)=O)c2cc(NC(=O)Cc3c(Cl)cccc3Cl)ccn2)ccc1F [Example 104, N-{4-[2-(2,6-dichlorophenyl)acetamido]pyridin-2-yl}-N-(4-fluoro-3-methoxyphenyl)acetamide]",96,846
"CC(=O)N(c1cc(NC(=O)Cc2cccc(C(F)(F)F)c2Cl)ccn1)c1ccccc1Cl [Example 105, N-(2-chlorophenyl)-N-(4-{2-[2-chloro-3-(trifluoromethyl)phenyl]acetamido}pyridin-2-yl)acetamide]",100,770
"CC(=O)N(c1cc(NC(=O)Cc2ccccc2Cl)ccn1)c1ccccc1Cl [Example 106, N-(2-chlorophenyl)-N-{4-[2-(2-chlorophenyl)acetamido]pyridin-2-yl}acetamide]",95,765
"CC(=O)N(c1cc(NC(=O)Cc2ccc(F)cc2Cl)ccn1)c1ccccc1Cl [Example 107, N-{4-[2-(2-chloro-4-fluorophenyl)acetamido]pyridin-2-yl}-N-(2-chlorophenyl)acetamide]",98,550
"CC(=O)N(c1cc(NC(=O)Cc2cccc(F)c2Cl)ccn1)c1ccccc1Cl [Example 108, N-{4-[2-(2-chloro-3-fluorophenyl)acetamido]pyridin-2-yl}-N-(2-chlorophenyl)acetamide]",97,769
"CC(=O)N(c1cc(NC(=O)Cc2c(Cl)cccc2Cl)ccn1)c1ccccc1Cl [Example 109, N-(2-chlorophenyl)-N-{4-[2-(2,6-dichlorophenyl)acetamido]pyridin-2-yl}acetamide]",100,643
"CC(=O)N(c1cc(NC(=O)Cc2cccc(C(F)(F)F)c2Cl)ccn1)c1cc(F)ccc1Cl [Example 110, N-(2-chloro-5-fluorophenyl)-N-(4-{2-[2-chloro-3-(trifluoromethyl)phenyl]acetamido}pyridin-2-yl)acetamide]",95,745
"CC(=O)N(c1cc(NC(=O)Cc2ccccc2Cl)ccn1)c1ccccc1F [Example 115, N-{4-[2-(2-chlorophenyl)acetamido]pyridin-2-yl}-N-(2-fluorophenyl)acetamide]",96,391
"CC(=O)N(c1cc(NC(=O)Cc2ccc(F)cc2Cl)ccn1)c1ccccc1F [Example 116, N-{4-[2-(2-chloro-4-fluorophenyl)acetamido]pyridin-2-yl}-N-(2-fluorophenyl)acetamide]",97,520
"CC(=O)N(c1cc(NC(=O)Cc2cccc(F)c2Cl)ccn1)c1ccccc1F [Example 117, N-{4-[2-(2-chloro-3-fluorophenyl)acetamido]pyridin-2-yl}-N-(2-fluorophenyl)acetamide]",95,789
"CC(=O)N(c1cc(NC(=O)Cc2c(Cl)cccc2Cl)ccn1)c1ccccc1F [Example 118, N-{4-[2-(2,6-dichlorophenyl)acetamido]pyridin-2-yl}-N-(2-fluorophenyl)acetamide]",94,545
"CC(=O)N(c1cc(NC(=O)Cc2cccc(F)c2Cl)ccn1)c1ccc(C(F)(F)F)cc1F [Example 119, N-{4-[2-(2-chloro-3-fluorophenyl)acetamido]pyridin-2-yl}-N-[2-fluoro-4-(trifluoromethyl)phenyl]acetamide]",101,941
"CC(=O)N(c1cc(NC(=O)Cc2c(Cl)cccc2Cl)ccn1)c1ccc(C(F)(F)F)cc1F [Example 120, N-{4-[2-(2,6-dichlorophenyl)acetamido]pyridin-2-yl}-N-[2-fluoro-4-(trifluoromethyl)phenyl]acetamide]",102,871
"CC(=O)N(c1cc(NC(=O)Cc2cccc(C(F)(F)F)c2Cl)ccn1)c1cccc(F)c1F [Example 121, N-(4-{2-[2-chloro-3-(trifluoromethyl)phenyl]acetamido}pyridin-2-yl)-N-(2,3-difluorophenyl)acetamide]",97,843
"CC(=O)N(c1cc(NC(=O)Cc2ccccc2Cl)ccn1)c1cccc(F)c1F [Example 122, N-{4-[2-(2-chlorophenyl)acetamido]pyridin-2-yl}-N-(2,3-difluorophenyl)acetamide]",95,357
